One compound from US7371555B2, “Polypeptides having α-H-α-amino acid amide racemase activity and nucleic acids encoding the same” (DSM IP Assets B.V., priority 2002, dated 2008) can be followed below.

Format in all cases: biochemical
Experiment [1] has as its system disintegrated cells of Agrobacterium rhizogenes Na. In words: α-H-α-amino acid amide racemase activity test with disintegrated cells. The following applies: incubation time 139 h; 0.79 w/w % D-leucine amide. Here is the method:
(§1) After growth of these three strains in Medium A containing 2 g/l of D-α-amino-ε-caprolactam, cells were harvested by centrifugation at 12,000×g. After centrifugation the supernatant was decanted and the wet weight of the pellet was measured. To the pellet, sonification buffer (NaCl, 16 g/l; KCl, 0.74 g/l; Na2HPO4, 0.27 g/l; glucose, 2 g/l; HEPES, 10 g/l, pH 7.0) was added in a 1:2 ratio (wet weight cell pellet:ml buffer). During storage between cell harvest and sonification the pellet was frozen in the sonification buffer at −86° C.
(§2) Sonification was performed with a Soniprep 150 of MSE at maximal amplitude of 20 microns in periods of 10 min. using time intervals of 10 sec. (i.e., 10 sec. sonification, 10 sec. cooling down), cooling the sample on ice/acetone. Each 10 min. the cells were viewed microscopically. The sonification procedure was stopped when >70% of the cells were broken.
(§3) 1 ml Of disintegrated cells of each of the three strains was incubated in a HEPES-NaOH buffer (20 mM) pH 7.7, to which pyridoxal-5-phosphate (0.01 mM) was added as a cofactor and D-leucine amide (60.8 mM) as a substrate in a total volume of 10 ml (0.79 w/w % D-leucine amide). After 0 and 139 hours 1 ml samples were taken (of which the exact weight was measured) and the reaction in these samples was stopped by adding 1 ml methanol (of which the exact weight was measured too; to be able to calculate dilution factors). Stopped reaction mixtures were centrifuged to remove particulates. The supernatants were frozen at −86° C. until HPLC analysis according to the method given in Example 1.

The test system of experiment [2] is disintegrated cells of Agrobacterium rhizogenes Bi. Described as above. Particulars: incubation time 139 h; 0.79 w/w % D-leucine amide. Here is the method: as §1, §2, §3
In experiment [3] the test system is disintegrated cells of Arthrobacter nicotianae. The experiment is described as above. The following applies: incubation time 139 h; 0.79 w/w % D-leucine amide. Here is the method: as §1, §2, §3
The subject of experiment [4] is α-H-α-amino acid amide racemase from Arthrobacter nicotianae NCIMB 41126. The experiment can be described thus: Substrate specificity, CFE from E. coli DH10B/pAn(1)PLV36D06 (Example 9). Particulars: relative to the activity towards D-leucine amide; 75 mM substrate, pH 8.0, 37° C. Here is the method: Preparation of the CFE of E. coli DH10B/pAn(1)PLV36D06 was performed as described in Example 7 for E. coli TOP10/pKEC_AZAR—3
Before applying the CFE from E. coli DH10B/pAn(1)PLV36D06 in the reactions with different enantiomerically pure α-H-α-amino acid amides to determine the substrate specificity of the A. nicotianae α-H-α-amino acid amide racemase, the E. coli amidases/aminopeptidases in this CFE were inhibited by a pre-treatment with an inhibitor cocktail. One tablet of Complete Mini Protease Inhibitor Cocktail (Roche Applied Science, Mannheim, Germany) was dissolved in 9 ml of the CFE followed by an incubation of 1 hour at room temperature. Next, reaction mixtures of 10 ml each (including the CFE) were prepared containing 50 mM HEPES-NaOH, pH 8.0, 20 μM pyridoxal-5-phosphate, 0.4 mg/ml BSA, 1 mM dithiothreitol and 75 mM of one of the amino acid amides tested. Reactions were started by the addition of 1 ml of the pre-treated CFE of E. coli DH10B/pAn(1)PLV36D06 or E. coli TOP10/pBAD/Myc-HisC (blank) and were incubated at 37° C. At regular time intervals samples of 1 ml were taken and transferred to vials containing 1 ml of 1M H3PO4 to stop the reaction. After sufficient dilution of the samples in 0.4 M borate buffer pH 9.4, the mixtures obtained were analyzed using HPLC to determine the exact concentrations of the two amino acid and two amino acid amide enantiomers according to the method of Example 7.

Structures are written as SMILES.

In experiment [1], `CC(C)C[C@@H](N)C(N)=O` [D-leucine amide] registered a D-leucine of 0.036 w/w %, a D-leucine amide of 0.51 w/w % and a L-leucine of 0.078 w/w %. Further, in experiment [2], the D-leucine is 0.013 w/w %, the D-leucine amide stood at 0.61 w/w % and the L-leucine was 0.025 w/w %. In addition, in experiment [3], the D-leucine is recorded as 0.002 w/w %, the D-leucine amide amounted to 0.56 w/w % and the L-leucine amounted to 0.068 w/w %. The compound further yielded a Rel. initial activity in experiment [4] of 100%.
